The results in this text go back to patent US10959986B2, “Inhibitors of indoleamine 2,3-dioxygenase and methods of their use” (BRISTOL-MYERS SQUIBB COMPANY, priority 2018, dated 2021).

In this experiment the target is T1, indoleamine 2,3-dioxygenase (IDO) (Homo sapiens, UniProt P14902).
T1 construct: media containing IFNγ (#285-IF/CF, R&D Systems) at a final concentration of 25 ng/mL; endogenous in cells; host or cells: HeLa (ATCC CCL-2), induced with IFN-gamma
The experiment can be described thus: HeLa cell-based indoleamine 2,3-dioxygenase (IDO) assay. The note with it: HeLa cells with IFNγ 25 ng/mL, 48 hour incubation, kynurenine production. On the procedure: Assessment of Inhibitor Activity in HeLa Cell-Based Indoleamine 2,3-Dioxygenase (IDO) Assay.
HeLa (ATCCR CCL-2) cells were obtained from the ATCC® and cultured in Dulbecco's Modified Eagle Medium supplemented with 4.5 g/L glucose, […] L-glutamine and […] (#10-013-CV, Corning), 2 mM L-alanyl-L-glutamine dipeptide (#35050-061, Gibco), 100U/mL penicillin, 100 µg/mL streptomycin (#SV30010, HyClone) and 10% fetal bovine serum (#SH30071.03 HyClone). Cells were maintained in a humidified incubator at 37° C. in 5% CO2.
IDO activity was assessed as a function of kynurenine production as follows: HeLa cells were seeded in a 96-well culture plate at a density of 5,000 cells/well and allowed to equilibrate overnight. After 24 hours, the media was aspirated and replaced with media containing IFNγ (#285-IF/CF, R&D Systems) at a final concentration of 25 ng/mL. A serial dilution of each test compound was added to the cells in a total volume of 200 μL of culture medium. After a further 48 hour incubation, 170 μL of supernatant was transferred from each well to a fresh 96-well plate. 12.1 μL of 6. IN trichloroacetic acid (#T0699, Sigma-Aldrich) was added to each well and mixed, followed by incubation at 65° C. for 20 minutes to hydrolyze N-formylkynurenine, the product of indoleamine 2,3-dioxygenase, to kynurenine. The reaction mixture was then centrifuged for 10 mins at 500×g to sediment the precipitate. 100 μL of the supernatant was transferred from each well to a fresh 96-well plate. 100 μl of 2% (w/v) p-dimethylaminobenzaldehyde (#15647-7, Sigma-Aldrich) in acetic acid (#A6283, Sigma-Aldrich) was added to each well mixed and incubated at room temperature for 20 mins. Kynurenine concentrations were determined by measuring absorbance at 480 nm and calibrating against an L-kynurenine (#K8625, Sigma-Aldrich) standard curve using a SPECTRAMAX® M2e microplate reader (Molecular Devices). The percentage activity at each inhibitor concentration was determined and IC50 values assessed using nonlinear regression.

[1] abbreviates: read-out: IDO Hela IC50 potency class (A < 50, B < 250, C < 2000).

Like-named read-outs stand apart in the source and are kept apart here. Where only a bound is given, the exact number is not on record here.

T1 sequence (P14902 whole entry): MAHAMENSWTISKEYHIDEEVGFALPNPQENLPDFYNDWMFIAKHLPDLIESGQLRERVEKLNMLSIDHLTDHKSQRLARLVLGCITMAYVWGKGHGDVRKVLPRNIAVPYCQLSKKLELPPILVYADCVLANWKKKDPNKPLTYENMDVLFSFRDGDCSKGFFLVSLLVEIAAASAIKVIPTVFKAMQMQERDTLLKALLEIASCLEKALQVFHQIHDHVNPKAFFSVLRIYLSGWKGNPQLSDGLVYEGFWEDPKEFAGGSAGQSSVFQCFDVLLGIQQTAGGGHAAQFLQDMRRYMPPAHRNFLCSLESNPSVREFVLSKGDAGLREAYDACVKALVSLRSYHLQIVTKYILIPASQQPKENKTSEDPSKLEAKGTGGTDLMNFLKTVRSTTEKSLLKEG

For `CCOc1ncc(Nc2cc([C@H](CC)CC(=O)O)ccc2-c2cnn(Cc3ccc(OC)cc3)c2)cn1` (single isomer, unassigned) [Example 47], the IC50 – broadly, the concentration needed to halve the response being measured – (read-out: IDO Hela IC50) turned out to be 10 nM.
Same read-out and setting: with `CCOc1ncc(Nc2cc([C@H](CC)CC(=O)O)ccc2-c2cnn(-c3ccc(F)cc3)c2)cn1` (single isomer, unassigned) [Example 48] the figure was 340 nM; with `CCOc1ncc(Nc2cc(C(CC)CC(=O)O)ccc2-c2ccc(OC)c(F)c2)cn1` (single isomer, unassigned) [Example 49], 30 nM.
In the case of `CCOc1ncc(Nc2cc([C@H](CC)CC(=O)O)ccc2-c2cccc3[nH]ncc23)cn1` (single isomer, unassigned) [Example 50], the half-inhibitory concentration (IC50) reads like this: (read-out: IDO Hela IC50) ≥ 1000 nM; under setting [1], 250 to 2000 nM.
With `CCOc1ncc(Nc2cc([C@H](CC)CC(=O)O)ccc2-c2ccc3c(cnn3C)c2)cn1` (single isomer, unassigned) [Example 51], the IC50 (read-out: IDO Hela IC50) came to 150 nM.
As for `CCOc1ncc(Nc2cc([C@H](CC)CC(=O)O)ccc2-c2ccncc2F)cn1` (single isomer, unassigned) [Example 52], the IC50 by setting is: (read-out: IDO Hela IC50) ≥ 1000 nM; under setting [1], 250 to 2000 nM.
Take `CCOc1ncc(Nc2cc([C@H](CC)CC(=O)O)ccc2-c2ccc(OC)cc2F)cn1` (single isomer, unassigned) [Example 53]: the IC50 (read-out: IDO Hela IC50) turned out to be 30 nM.
For the compound `CCOc1ncc(Nc2cc([C@H](CC)CC(=O)O)ccc2-c2c(C)noc2C)cn1` (single isomer, unassigned) [Example 54], the IC50 (read-out: IDO Hela IC50) is 90 nM.
`CCOc1ncc(Nc2cc([C@H](CC)CC(=O)O)ccc2-c2cnn(CCN3CCOCC3)c2)cn1` (single isomer, unassigned) [Example 55]: the IC50 (read-out: IDO Hela IC50) is ≥ 1000 nM and the IC50 under setting [1] was 250 to 2000 nM.
As for `CCOc1ncc(Nc2cc([C@H](CC)CC(=O)O)ccc2C2=CC3CCC(C2)N3C(=O)OC(C)(C)C)cn1` (single isomer, unassigned) [Example 56], for the setting “read-out: IDO Hela IC50”, the IC50 is 390 nM.
Still for that read-out and setting: with `CCc1ncc(Nc2cc([C@H](CC)CC(=O)O)ccc2-c2sc(C)nc2C)cn1` (single isomer, unassigned) [Example 57] the figure was 110 nM; with `CCc1ncc(Nc2cc([C@@H](CC)CC(=O)O)ccc2-c2sc(C)nc2C)cn1` (single isomer, unassigned) [Example 58], 390 nM; with `COC[C@@H](CC(=O)O)c1ccc(-c2sc(C)nc2C)c(Nc2ccc(C#N)cc2)c1` (single isomer, unassigned) [Example 59], 220 nM.
Take `CCOc1ncc(Nc2cc([C@H](CC)CC(=O)O)ccc2-c2sc(C)nc2C)cn1` (single isomer, unassigned) [Example 61]: the IC50 (read-out: IDO Hela IC50) came out at 10 nM.
On the same count and under the same terms, with `CCOc1ncc(Nc2cc([C@H](CC)CC(=O)O)ccc2-c2ccc(C#N)cn2)cn1` (single isomer, unassigned) [Example 62] the figure was 890 nM.
The same measure, in the same setting: to `CCOc1ncc(Nc2cc([C@H](CC)CC(=O)O)ccc2-c2ncc(F)cn2)cn1` (single isomer, unassigned) [Example 63] belongs 700 nM.
For `CCOc1ncc(Nc2cc([C@H](CC)CC(=O)O)ccc2-c2cnc(OCC)nc2)cn1` (single isomer, unassigned) [Example 64], the IC50 is, setting by setting: (read-out: IDO Hela IC50) ≥ 1000 nM; under setting [1], 250 to 2000 nM.
The matching figures for `CCOc1ncc(Nc2cc([C@H](CC)CC(=O)O)ccc2-c2ccc3nc(C)oc3c2)cn1` (single isomer, unassigned) [Example 65]: ≥ 1000 nM and 250 to 2000 nM.
As for `CCOc1ncc(Nc2cc([C@H](CC)CC(=O)O)ccc2-c2cccc(C(F)F)n2)cn1` (single isomer, unassigned) [Example 66], the IC50 (read-out: IDO Hela IC50) came out at 750 nM.
For the compound `CCOc1ncc(Nc2cc([C@H](CC)CC(=O)O)ccc2-c2c[nH]c3cnccc23)cn1` (single isomer, unassigned) [Example 67], the IC50 is ≥ 1000 nM (read-out: IDO Hela IC50) and 250 to 2000 nM under setting [1].
For `CCOc1ncc(Nc2cc([C@H](CC)CC(=O)O)ccc2-c2ccc3nc(C)sc3c2)cn1` (single isomer, unassigned) [Example 68], for the setting “read-out: IDO Hela IC50”, the IC50 worked out at 500 nM.
The same measure, in the same setting: with `CCOc1ncc(Nc2cc([C@H](CC)CC(=O)O)ccc2-c2ncc(C)cn2)cn1` (single isomer, unassigned) [Example 69] the figure was 110 nM.
On the same count and under the same terms, with `CCOc1ncc(Nc2cc([C@H](CC)CC(=O)O)ccc2-c2ccc(Cl)cc2F)cn1` (single isomer, unassigned) [Example 70] the figure was 230 nM; with `CCOc1ncc(Nc2cc([C@H](CC)CC(=O)O)ccc2-c2ccc(Cl)cc2)cn1` (single isomer, unassigned) [Example 71], 110 nM.
As to `CCOc1ncc(Nc2cc([C@H](CC)CC(=O)O)ccc2-c2ccc(Cl)c(F)c2)cn1` (single isomer, unassigned) [Example 72], the concentration for half-maximal inhibition (IC50) (read-out: IDO Hela IC50) is 210 nM.
The same measure, in the same setting: with `CCOc1cnc(-c2ccc([C@H](CC)CC(=O)O)cc2Nc2cnc(OCC)nc2)cn1` (single isomer, unassigned) [Example 74] the figure was 450 nM.
With `CCOc1ncc(Nc2cc([C@H](CC)CC(=O)O)ccc2-c2c(C)n[nH]c2C)cn1` (single isomer, unassigned) [Example 75], the IC50 (read-out: IDO Hela IC50) was ≥ 1000 nM and the IC50 under setting [1] lay within 250 to 2000 nM.
Turning to `CCOc1ncc(Nc2cc([C@H](CC)CC(=O)O)ccc2-c2nc3ccccc3s2)cn1` (single isomer, unassigned) [Example 76], the IC50 (read-out: IDO Hela IC50) came out at 950 nM.
In the case of `CCOc1ncc(Nc2cc([C@H](CC)CC(=O)O)ccc2-c2cn3ccccc3n2)cn1` (single isomer, unassigned) [Example 77], the IC50 runs as follows: (read-out: IDO Hela IC50) ≥ 1000 nM; under setting [1], 250 to 2000 nM.
The matching figures for `CCOc1ncc(Nc2cc([C@H](CC)CC(=O)O)ccc2-c2ccc3nonc3c2)cn1` (single isomer, unassigned) [Example 78]: ≥ 1000 nM and 250 to 2000 nM.
For the compound `CCOc1ncc(Nc2cc([C@H](CC)CC(=O)O)ccc2-c2ccn3nccc3n2)cn1` (single isomer, unassigned) [Example 79], where the note is “read-out: IDO Hela IC50”, the IC50 amounted to 400 nM.
Turning to `CCOc1ncc(Nc2cc([C@H](CC)CC(=O)O)ccc2-c2ccc(C#N)c(OC)c2)cn1` (single isomer, unassigned) [Example 80], the IC50 (read-out: IDO Hela IC50) was ≥ 1000 nM and the IC50 under setting [1] fell in the range of 250 to 2000 nM.
In the case of `CCOc1ncc(Nc2cc([C@H](CC)CC(=O)O)ccc2-c2c(C)nn(C)c2C)cn1` (single isomer, unassigned) [Example 81], the IC50 (read-out: IDO Hela IC50) amounted to 600 nM.
Still for that read-out and setting: with `CCOc1ncc(Nc2cc([C@H](CC)CC(=O)O)ccc2-c2csc(-c3ccccc3)n2)cn1` (single isomer, unassigned) [Example 82] the figure was 110 nM; with `CCOc1ncc(Nc2cc([C@H](CC)CC(=O)O)ccc2-c2ccc3c(c2)OC(F)(F)O3)cn1` (single isomer, unassigned) [Example 83], 170 nM.
The same measure, in the same setting: with `CCOc1ncc(Nc2cc([C@H](CC)CC(=O)O)ccc2-c2ccnc(N3CCOCC3)n2)cn1` (single isomer, unassigned) [Example 84] the figure was 760 nM.
For `CCOc1ncc(Nc2cc([C@H](CC)CC(=O)O)ccc2-c2ccc3cncn3c2)cn1` (single isomer, unassigned) [Example 85], the IC50 is ≥ 1000 nM (read-out: IDO Hela IC50) and 250 to 2000 nM under setting [1].
The matching figures for `CCOc1ncc(Nc2cc([C@H](CC)CC(=O)O)ccc2-c2ccn3ccnc3c2)cn1` (single isomer, unassigned) [Example 86]: ≥ 1000 nM and 250 to 2000 nM.
The matching figures for `CCOc1ncc(Nc2cc([C@H](CC)CC(=O)O)ccc2-c2nc(-c3ccccc3)cs2)cn1` (single isomer, unassigned) [Example 87]: ≥ 1000 nM and 250 to 2000 nM.
For the compound `CCOc1ncc(Nc2cc([C@H](CC)CC(=O)O)ccc2-c2nnc(C)s2)cn1` (single isomer, unassigned) [Example 89], where the note is “read-out: IDO Hela IC50”, the IC50 amounted to 400 nM.
For “(S)-3-(2-((4-cyanophenyl)amino)- -methyl- [1,1′-biphenyl]-4-yl)-4-methoxybutanoic acid [Example 37]”, the IC50 is ≥ 1000 nM (read-out: IDO Hela IC50) and 250 to 2000 nM under setting [1].
